Non-standard residues stand in square brackets, D forms with d. Residues, ends and D or L forms follow the SMILES beside them. Hyp = O=C(O)[C@@H]1C[C@@H](O)CN1

Usually ΔTm stands for the shift of the melting midpoint relative to a reference.

Data set [1] can be described thus: Method for predicting global Tm of collagen peptides from amino acid sequence. The note with it: observed minus predicted, peptides of Table 3. As to the method: The global thermal stability of homotrimeric triple helical peptides with length of at least 6 tripeptide units and, in most cases, containing 10 tripeptide units was determined as follows.
For the total number of triplets n in a given peptide, the base Tm^0(n) for (Pro-Hyp-Gly) or (Pro-Pro-Gly)n was calculated from the length dependence (Equation 1), including any effect of blocking groups;
The melting temperature value was decreased for every triplet in the sequence that was not Gly-Pro-Hyp, subtracting a value of ΔTm^GXY (Table 1). The N-terminal and C-terminal tripeptide units were excluded from the calculation due to the staggering of the chains and the disorder for the peptide ends (Bella et al. (1994) supra; Li, et al. (1993) Biochemistry 32:7377-7387; Kramer, et al. (2001) J. Mol. Biol. 301:1191-1205).
The resulting value for the peptide melting temperature was adjusted using the ΔTm^int values for interactions between neighboring tripeptides (Table 2).
The method was formulated as follows.
To extrapolate the dependence of the Tm of the host peptides on peptide length, the experimental values for (Pro-Hyp-Gly)n and (Pro-Pro-Gly)n versus n, where n is the number of tripeptide units, were fit to the exponential decay function
[formula] where Tm^0(n) is defined as the base thermal stability of the repeating polytripeptide standard, Tm^max is the maximum melting temperature, and the constant n0 represents the length of the repeating peptide with Tm=0.

The conditions of data set [2]: peptide of Table 3, defined standard conditions. As to the method:
The propensity measurements for all 20 amino acid residues in the Xaa1 position in a Gly-Xaa1-Hyp context and all 20 amino acid residues in the Xaa2 position in a Gly-Pro-Xaa2 context were determined by measuring thermal stability of host-guest peptides (Persikov, et al. (2000) supra).
The Tm values of all host-guest peptides were measured under a set of standard conditions, with c=1 mg/ml in phosphate-buffered saline, pH 7.0, and with a heating rate average of 0.1° C./minute (Persikov, et al. (2004) supra).

On to `CC(=O)NCC(=O)N1CCC[C@H]1C(=O)N1C[C@H](O)C[C@H]1C(=O)NCC(=O)N1CCC[C@H]1C(=O)N1C[C@H](O)C[C@H]1C(=O)NCC(=O)N1CCC[C@H]1C(=O)N1C[C@H](O)C[C@H]1C(=O)NCC(=O)N[C@@H](CCCCN)C(=O)N[C@@H](CCCNC(=N)N)C(=O)NCC(=O)N[C@@H](CCCCN)C(=O)N1C[C@H](O)C[C@H]1C(=O)NCC(=O)N1CCC[C@H]1C(=O)N1C[C@H](O)C[C@H]1C(=O)NCC(=O)N1CCC[C@H]1C(=O)N1C[C@H](O)C[C@H]1C(=O)NCC(=O)N1CCC[C@H]1C(=O)N1C[C@H](O)C[C@H]1C(=O)NCC(=O)NCC(N)=O` [AchE-HG-C1, Ac-GPO-GPO-GPO-GKR-GKO-GPO-GPO-GPO-GG-NH2] (Ac-GP[Hyp]GP[Hyp]GP[Hyp]GKRGK[Hyp]GP[Hyp]GP[Hyp]GP[Hyp]GG-NH2), for which the ΔTm in data set [1] is −1.0 °C. In data set [2], the “Tm^obs” value turned out to be 32.3 °C.

With `CC(=O)NCC(=O)N1CCC[C@H]1C(=O)N1C[C@H](O)C[C@H]1C(=O)NCC(=O)N1CCC[C@H]1C(=O)N1C[C@H](O)C[C@H]1C(=O)NCC(=O)N[C@@H](CCCNC(=N)N)C(=O)N1C[C@H](O)C[C@H]1C(=O)NCC(=O)N[C@@H](CCCCN)C(=O)N[C@@H](CCCNC(=N)N)C(=O)NCC(=O)N[C@@H](CCCCN)C(=O)N1C[C@H](O)C[C@H]1C(=O)NCC(=O)N1CCC[C@H]1C(=O)N1C[C@H](O)C[C@H]1C(=O)NCC(=O)N1CCC[C@H]1C(=O)N1C[C@H](O)C[C@H]1C(=O)NCC(=O)N1CCC[C@H]1C(=O)N1C[C@H](O)C[C@H]1C(=O)NCC(=O)NCC(N)=O` [AchE-HG-C2, Ac-GPO-GPO-GRO-GKR-GKO-GPO-GPO-GPO-GG-NH2] (Ac-GP[Hyp]GP[Hyp]GR[Hyp]GKRGK[Hyp]GP[Hyp]GP[Hyp]GP[Hyp]GG-NH2), the ΔTm in data set [1] was 0.3 °C. Besides, the “Tm^obs” value in data set [2] was 26.9 °C.

Take `CC(=O)NCC(=O)N1CCC[C@H]1C(=O)N1C[C@H](O)C[C@H]1C(=O)NCC(=O)N1CCC[C@H]1C(=O)N1C[C@H](O)C[C@H]1C(=O)NCC(=O)N[C@@H](CCCNC(=N)N)C(=O)N1C[C@H](O)C[C@H]1C(=O)NCC(=O)N[C@@H](CCCCN)C(=O)N[C@@H](CCCNC(=N)N)C(=O)NCC(=O)N[C@@H](CCCCN)C(=O)N[C@@H](CCC(N)=O)C(=O)NCC(=O)N1CCC[C@H]1C(=O)N1C[C@H](O)C[C@H]1C(=O)NCC(=O)N1CCC[C@H]1C(=O)N1C[C@H](O)C[C@H]1C(=O)NCC(=O)N1CCC[C@H]1C(=O)N1C[C@H](O)C[C@H]1C(=O)NCC(=O)NCC(N)=O` [AchE-HG-C3, Ac-GPO-GPO-GRO-GKR-GKQ-GPO-GPO-GPO-GG-NH2] (Ac-GP[Hyp]GP[Hyp]GR[Hyp]GKRGKQGP[Hyp]GP[Hyp]GP[Hyp]GG-NH2): in data set [1], the ΔTm is −2.7 °C. In addition, in data set [2], the “Tm^obs” value amounted to 21.3 °C.

As for `CC(=O)NCC(=O)N1CCC[C@H]1C(=O)N1C[C@H](O)C[C@H]1C(=O)NCC(=O)N1CCC[C@H]1C(=O)N1C[C@H](O)C[C@H]1C(=O)NCC(=O)N[C@@H](CCCNC(=N)N)C(=O)N1C[C@H](O)C[C@H]1C(=O)NCC(=O)N[C@@H](CCCCN)C(=O)N[C@@H](CCCNC(=N)N)C(=O)NCC(=O)N[C@@H](CCCCN)C(=O)N[C@@H](CCC(N)=O)C(=O)NCC(=O)N[C@@H](CCC(N)=O)C(=O)N[C@@H](CCCCN)C(=O)NCC(=O)N1CCC[C@H]1C(=O)N1C[C@H](O)C[C@H]1C(=O)NCC(=O)N1CCC[C@H]1C(=O)N1C[C@H](O)C[C@H]1C(=O)NCC(=O)NCC(N)=O` [AchE-HG-C4, Ac-GPO-GPO-GRO-GKR-GKQ-GQK-GPO-GPO-GG-NH2] (Ac-GP[Hyp]GP[Hyp]GR[Hyp]GKRGKQGQKGP[Hyp]GP[Hyp]GG-NH2), the thermal shift (ΔTm) in data set [1] was −1.2 °C. In data set [2], the “Tm^obs” value is 8.1 °C.

The record behind these values is patent publication US8280710B2, “Method for determining thermal stability of collagen or collagen-like peptide” (University of Medicine and Dentistry of New Jersey, priority 2005, dated 2012).
